Assay results from US20260116884A1, “PROTAC CHIMERIC COMPOUND, PREPARATION METHOD THEREFOR AND USE THEREOF” (HANGZHOU ZHONGMEIHUADONG PHARMACEUTICAL CO., LTD., priority 2022, published 2026).
Like-named read-outs stand apart in the source and are kept apart here.

Tests used:
[1] = tested on: IL2 activation in human PBMC; assay: IL2 activity assay (ELISA) in human PBMC; type: cell-based; conditions: CD3/CD28 antibody, 24 h
Procedure: The compound was diluted with DMSO in a dilution plate, with a maximum starting concentration of 10 μM, 8 concentration gradient points (3-fold dilution), and then added to the 96-well plate along with the addition of 5 µg/ml CD28 antibody. Incubation was performed for 24 h. • (3) The ELISA plate was washed twice with PBS, and an ELISA dilution was added at 100 µl/well. Then 100 μl of the standard and the incubated samples obtained in step 2 were added separately, and incubated for 2 h at room temperature. • (4) Each well was washed 3 times by adding with 400 μl washing buffer per well, and was finally blotted to dryness with a clean absorbent paper. • (5) 200 μl of the IL2 conjugate was added per well, covered with a fresh tape, and incubated for 2 h at room temperature. Step (4) was repeated. • (6) 200 μl of the substrate was added per well under the protection from light. The plate was incubated at room temperature for 20 min. • (7) 50 μL of a stop solution was added per well. The color of the wells should be from blue to yellow. Signals at […] were read by a microplate reader, and the signal intensity was used to characterize the activity level of IL2. EC50 values were obtained by fitting using the Prism software.

human HPK1 [2] = target: T1, human HPK1 (Homo sapiens, UniProt Q92918); assay: HPK1 protein degradation assay (WB) in RAMOS cell line; type: cell-based; set-up: The RAMOS cell line was selected as the degradation cell line; endogenous in cells; host or cells: RAMOS; conditions: RAMOS cells, 16 h, Western blot
Procedure: Degradation of HPK1 proteins and DC50/Dmax were determined by the WB method in order to evaluate the in vitro degradative ability of the compound.
The RAMOS cell line was selected as the degradation cell line. Incubation Conditions: RMPI 1640 culture medium supplemented with 10% FBS, 37° C., 5% CO2.
• (1) Plating cells: in a 6 cm dish with 4 ml of the culture medium, cells plated at 2×10^6 cells/dish. • (2) Drug addition: the compound (stock solution concentration: 10 mM) was diluted with DMSO in a dilution plate, with a maximum starting concentration of 10 μM and 7 concentration gradient points (3-fold dilution). 4 μl of each diluted solution was taken, added to a dish, and incubated for 16 h. • (3) Cells were harvested, added with a lysis buffer, and centrifuged at 12000 rpm/min for 20 min. The supernatant was collected. After quantification using a BCA quantification kit, 5× loading buffer was added to denature for 10 min. • (4) 10 μg of denatured protein was added to the SDS-PAGE gel. After electrophoresis and membrane transfer, the plate was blocked with 5% BSA for 1 h, incubate with the primary antibody at 4° C. overnight. After washing off the primary antibody, the secondary antibody was added, incubated at room temperature for 1 h, and washed off.
Imaging: the membranes were scanned with a two-color fluorescence imaging system.

[3] = Pharmacokinetics of single administration in mice; type: in vivo, Balb/c mice; set-up: Vz: unit not given here; conditions: for clearance / half-life / AUC / bioavailability / Cmax: female, Balb/c, mouse, plasma; for AUC: read-out: AUC; for bioavailability: po 10 mg/kg vs iv 2 mg/kg; for Cmax: read-out: Cmax
Procedure: Female Balb/c mice (weighing 18-22 g) were fasted overnight prior to the experiment. The test compound was dissolved in the vehicle, DMSO:PEG400:30% captisol:HCl=5:20:70:5 (v/v/v/v), and administered by single oral gavage at a dose of 10 mg/kg or by intravenous injection at a dose of 2 mg/kg. Blood samples were collected from the orbital venous plexus at 15 minutes, 30 minutes, and 1, 2, 4, 6, 8, and 24 h after administration. Approximately 0.08 mL of blood was collected at each time point and placed in a 1.5 mL centrifuge tube containing EDTA-2K anticoagulant. Blood samples were centrifuged (3200 g, 10 min, 4° C.) within 2 h to obtain plasma samples. Plasma samples were frozen at −70° C. to −80° C. in an ultra-low temperature freezer prior to processing. Before sample processing, the plasma samples were taken out of the freezer. After thawing at room temperature, 20 μL of each plasma sample was added into a 96-well plate, and then 120 μL of acetonitrile containing an internal standard was added to precipitate proteins. […] The supernatant was taken and mixed with an equal volume of 0.1% aqueous formic acid solution for LC-MS/MS analysis.

human HPK1 [4] = target: T1, human HPK1; assay: Assay of in vitro HPK1 enzymatic activity (ADP-Glo); type: biochemical; conditions: 7 nM kinase, 20 uM ATP
Procedure: Compounds were evaluated for their ability to inhibit human HPK1 by IC50 determination using the ADP-Glo method to measure the kinase activity.
Buffer conditions of the enzyme: 50 mM Hepes (pH 7.5), 10 mM MgCl2, 1 mM EGTA, 0.01% Brij35, 2 mM DTT.
Preparation of the Kinase and substrate mixture: the working concentration of the kinase in the HPK1 reaction solution was 7 nM and the working concentration of ATP was 20 uM.
The compound was diluted with DMSO in a dilution plate, with a maximum starting concentration of 1 uM and 10 concentration gradient points (4-fold dilution).
Each of the above 10 concentration gradient points of the compound was then diluted 50-fold into the kinase reaction buffer and shaken on a shaker for 20 min. The kinase was prepared in an enzyme reaction buffer and 2 μl of the HPK1 kinase was added per well of the reaction plate at a HPK1 kinase concentration of 7 nM.
1 μl of diluted compound in the buffer was added per well, and the plate was sealed with a plate sealing film, centrifuged at 1000 g for 30 seconds, and left at room temperature for 10 minutes. An ATP solution was prepared with an enzyme reaction buffer and 2 μl of the ATP solution was added to the reaction plate (the working concentration of ATP was 20 uM). The plate was sealed with a plate sealing film, centrifuged at 1000 g for 30 seconds, and reacted at room temperature for 60 minutes. 4 μL of ADP-Glu was transferred to a 384 reaction plate, centrifuged at 1000 rpm/min for 1 min, and incubated at 25° C. for 40 min. 8 μL of the Detection solution was transferred to a 384 reaction plate, centrifuged at 1000 rpm/min for 1 min, and incubated at 25° C. for 40 min. The RLU (Relative luminescence unit) signal was read using a BMG microplate reader, and the signal intensity was used to characterize the activity level of the kinase.
The kinase activity data was expressed by comparing the kinase activity of the test compound and the blank group (containing only DMSO), and the IC50 value was obtained by curve fitting using the Prism software (GraphPad7.0).

T1 sequence (Q92918 whole entry): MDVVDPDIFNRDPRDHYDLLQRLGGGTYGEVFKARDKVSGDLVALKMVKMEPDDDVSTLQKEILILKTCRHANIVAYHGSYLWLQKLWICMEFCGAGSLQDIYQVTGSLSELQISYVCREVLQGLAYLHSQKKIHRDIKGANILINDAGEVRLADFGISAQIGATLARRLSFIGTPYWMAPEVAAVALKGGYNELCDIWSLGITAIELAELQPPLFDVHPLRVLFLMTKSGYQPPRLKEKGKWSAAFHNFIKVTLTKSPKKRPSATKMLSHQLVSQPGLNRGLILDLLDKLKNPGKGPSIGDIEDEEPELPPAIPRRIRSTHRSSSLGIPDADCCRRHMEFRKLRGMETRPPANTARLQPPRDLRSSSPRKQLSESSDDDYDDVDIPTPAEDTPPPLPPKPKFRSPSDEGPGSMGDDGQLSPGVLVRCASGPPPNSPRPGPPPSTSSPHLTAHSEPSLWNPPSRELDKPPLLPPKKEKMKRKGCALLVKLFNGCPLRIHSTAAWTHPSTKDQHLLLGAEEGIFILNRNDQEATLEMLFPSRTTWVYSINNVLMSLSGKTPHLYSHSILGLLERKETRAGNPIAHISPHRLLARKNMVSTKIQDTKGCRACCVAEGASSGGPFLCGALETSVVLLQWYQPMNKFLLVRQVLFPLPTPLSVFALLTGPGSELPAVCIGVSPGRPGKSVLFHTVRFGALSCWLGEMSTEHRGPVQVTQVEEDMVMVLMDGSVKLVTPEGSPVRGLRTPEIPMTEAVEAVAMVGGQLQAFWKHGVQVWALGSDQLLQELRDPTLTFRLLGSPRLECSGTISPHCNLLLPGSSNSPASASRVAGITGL

| Compound | DC50 (human HPK1 [2]) [µM] | Dmax (human HPK1 [2]) [%] | clearance ([3]; iv 2 mg/kg) [L/h/kg] | half-life ([3]; iv 2 mg/kg) [h] | AUC ([3]; iv 2 mg/kg) [µg·h/mL] | half-life ([3]; po 10 mg/kg) [h] | bioavailability [3] [%] | AUC ([3]; po 10 mg/kg) [µg·h/mL] | Cmax ([3]; po 10 mg/kg) [µg/mL] | Vz ([3]; iv 2 mg/kg) | IC50 (human HPK1 [4]) [µM] | EC50 [1] [µM] |
| --- | --- | --- | --- | --- | --- | --- | --- | --- | --- | --- | --- | --- |
| CCN1CCC(n2cc(-c3c[nH]c4ncc(-c5cnc(N6CCN(CC7CCN(C(=O)c8ccc(Cl)c(N9CCC(=O)NC9=O)c8)CC7)CC6)c(C)c5)nc34)cn2)CC1 [Compound C003] |  |  |  |  |  |  |  |  |  |  | 0.0036 | 0.111 |
| CCN1CCC(n2cc(-c3c[nH]c4ncc(-c5cnc(N6CCN(C7CCC(NC(=O)c8cccc(N9CCC(=O)NC9=O)c8)CC7)CC6)c(C)c5)nc34)cn2)CC1 (centres unmarked) [Compound C017] |  |  |  |  |  |  |  |  |  |  | 0.0009 | 0.324 |
| CCN1CCC(n2cc(-c3c[nH]c4ncc(-c5cnc(OCC(=O)Nc6ccc(NC7CCC(=O)NC7=O)cc6)c(C)c5)nc34)cn2)CC1 (centres unmarked) [Compound C006] |  |  |  |  |  |  |  |  |  |  | 0.0032 | 0.179 |
| CCN1CCC(n2cc(-c3c[nH]c4ncc(-c5cnc(N6CCN(C7CCC(NC(=O)c8ccc(Cl)c(N9CCC(=O)NC9=O)c8)CC7)CC6)c(C)c5)nc34)cn2)CC1 (centres unmarked) [Compound C018] |  |  |  |  |  |  |  |  |  |  | 0.0018 | 0.102 |

Continued, in another order:

| DC50 (human HPK1 [2]) [µM] | Dmax (human HPK1 [2]) [%] | clearance ([3]; iv 2 mg/kg) [L/h/kg] | half-life ([3]; iv 2 mg/kg) [h] | AUC ([3]; iv 2 mg/kg) [µg·h/mL] | half-life ([3]; po 10 mg/kg) [h] | bioavailability [3] [%] | AUC ([3]; po 10 mg/kg) [µg·h/mL] | Cmax ([3]; po 10 mg/kg) [µg/mL] | Vz ([3]; iv 2 mg/kg) | IC50 (human HPK1 [4]) [µM] | Compound | EC50 [1] [µM] |
| --- | --- | --- | --- | --- | --- | --- | --- | --- | --- | --- | --- | --- |
| 0.00935 | 93 | 0.496 | 0.98 | 4.03 | 3.35 | 17.7 | 2.21 | 0.84 | 701.3 |  | C/C(=C(Cl)\C=C/CC(=O)N1CCC(CC2CCN(c3ccc(-c4cnc5[nH]cc(-c6cnn(C)c6)c5n4)cn3)CC2)CC1)N1CCC(=O)NC1=O [Compound C110] | 0.0556 |
| 0.0021 | 77 |  |  |  |  |  |  |  |  | 0.0023 | CCN1CCC(n2cc(-c3c[nH]c4ncc(-c5ccc(N6CCC(CC7CCN(C(=O)c8ccc(Cl)c(N9CCC(=O)NC9=O)c8)CC7)CC6)nc5)nc34)cn2)CC1 [Compound C024] | 0.196 |
| 0.0292 | 86.5 | 0.757 | 0.7 | 2.64 | 1.66 | 28 | 3.69 | 1.37 | 763 |  | CCn1cc(-c2c[nH]c3ncc(-c4ccc(N5CCC(CC6CCN(C(=O)c7ccc(Cl)c(N8CCC(=O)NC8=O)c7)CC6)CC5)nc4)nc23)cn1 [Compound C162] | 0.0273 |
| 0.055 | 86 |  |  |  |  |  |  |  |  | 0.0014 | CCN1CCC(n2cc(-c3c[nH]c4ncc(-c5cnc(OCCNC(=O)c6ccc(Cl)c(N7CCC(=O)NC7=O)c6)c(C)c5)nc34)cn2)CC1 [Compound C022] | 0.0956 |
| 0.0522 | 87.1 | 0.414 | 0.7 | 4.83 | 4.22 | 27.6 | 6.67 | 1.39 | 1329 |  | O=C1CCN(c2cc(C(=O)N3CCC(CC4CCN(c5ccc(-c6cnc7[nH]cc(-c8cnn(C9CC9)c8)c7n6)cn5)CC4)CC3)ccc2Cl)C(=O)N1 [Compound C170] | 0.0238 |
|  |  |  |  |  |  |  |  |  |  | 0.0005 | CCN1CCC(n2cc(-c3c[nH]c4ncc(-c5ccc(N6CCN(C7CCC(NC(=O)c8ccc(Cl)c(N9CCC(=O)NC9=O)c8)CC7)CC6)c(C)c5)nc34)cn2)CC1 (centres unmarked) [Compound C021] | 0.0379 |
| 0.0126 | 88.8 | 0.64 | 1.25 | 5.33 | 3.19 | 29.6 | 7.96 | 2.46 | 602 |  | [2H]C([2H])([2H])n1cc(-c2c[nH]c3ncc(-c4ccc(N5CCC(CC6CCN(C(=O)c7ccc(Cl)c(N8CCC(=O)NC8=O)c7)CC6)CC5)nc4)nc23)cn1 [Compound C160] | 0.0455 |
